Data on three compounds can be found in patent publication US4910152A, “Method for binding opioid receptors” (priority 1986, dated 1990).

For test [1], the target named is T1, opioid receptors in rat brain membrane preparations (Rattus norvegicus, UniProt P33535). The test can be described thus: biochemical.
Protocol: (§1) The data was analyzed, using the program LIGAND of Munson and Rodbard.
Test [2] addresses opioid receptor sites (3H-DALE). In words: Site selectivity displacement, 3H-DALE indicator (with cold DHM). Type of test: binding. The following applies: 0.43 nM cold DHM and 0.43 nM DALE*; determined graphically.
Description: In FIG. 1 it will be noted that compounds which displace the two indicator ligands differently provide a curve which is convex towards the axis of the labeled indicator ligand which is less favorably displaced.
The target of test [3] is T1, opioid receptors in rat brain membrane preparations. In words: 3H-DHM displacement from rat brain membranes (Example 4 method). The following applies: 3H-DHM displacement.
Protocol: as §1
The test system of test [4] is guinea pig ileum longitudinal muscle preparation. In words: Electrically stimulated guinea pig ileum longitudinal muscle (Example 5). Type of test: cell-based. As to the method:
6-FN was tested for activity on an electrically stimulated guinea pig ileum longitudinal muscle preparation. In this test, a specimen of guinea pig ileum was stretched between two wires in a nutrient solution (2.5 mil.) and stimulated supramaximally at 0.1 Hz. In the absence of opioid agonists and antagonists electrical stimulation of the muscle results in contraction.

The subject of a further test is opioid receptors. The following applies: Hahn, Pasternak et al.; cited from earlier work.
The conditions of test [5]: feeding induced by 2-deoxy-D-glucose; cited from earlier work.

Structures are written as SMILES. Entries after “also recorded” stand apart in the source; their conditions may differ.

T1 sequence (P33535 whole entry): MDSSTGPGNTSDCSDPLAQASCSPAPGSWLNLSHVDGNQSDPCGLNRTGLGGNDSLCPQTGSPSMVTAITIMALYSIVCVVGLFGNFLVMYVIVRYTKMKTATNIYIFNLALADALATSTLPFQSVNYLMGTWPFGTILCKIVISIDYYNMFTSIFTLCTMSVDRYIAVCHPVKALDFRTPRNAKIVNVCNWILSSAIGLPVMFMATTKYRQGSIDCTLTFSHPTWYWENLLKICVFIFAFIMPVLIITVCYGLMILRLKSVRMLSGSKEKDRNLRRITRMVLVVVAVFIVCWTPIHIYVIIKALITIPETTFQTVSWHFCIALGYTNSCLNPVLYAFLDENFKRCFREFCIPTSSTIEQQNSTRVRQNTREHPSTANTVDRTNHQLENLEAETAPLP

In general, Kd refers to the equilibrium constant for the complex coming apart. High values mean a looser complex, low ones a tighter complex. One may read the IC50 as the concentration that inhibits the measured activity by half. A high value points to a need for much substance. For orientation: Hill coefficient means the slope factor of the fitted curve. For the compound `C=CCN1CC[C@]23c4c5ccc(O)c4O[C@H]2C(=NNC(=S)Nc2ccc4c(c2)C(=O)OC42c4ccc(O)cc4Oc4cc(O)ccc42)CC[C@@]3(O)[C@H]1C5` [6-FN, 1-(N)-Fluoresceinyl Naloxone Thiosemicarbazone], the affinity in test [1], expressed as Kd, was 11.5 nM. Further, the IC50 in test [2] turned out to be 17 nM. Also, in test [3], the Hill coefficient was determined as 0.671. Also, the “binding activity in synaptosomal membranes (in words)” value in test [3] (rat brain synaptosomal membranes) is reported as “sufficient binding activity”. Moreover, the “reversibility of 6-FN partial agonist activity by naloxone” value in test [4] (10^-6 M 6-FN, 10^-7 M naloxone) was “reversible with 10^-7 M naloxone”. In addition, the “agonist activity of 6-FN in ileum” value in test [4] (10^-6 M (FIG. 2)) was “partial agonist activity; also recorded: slight agonist effect”. The “inhibition of the agonist effect of normorphine” value in test [4] (final 6-FN concentration 10^-7 M, added prior to normorphine) was “significantly inhibited the agonist effect of normorphine”. Also, in test [4] (inhibition of agonist effect of normorphine, compared with naloxone), the “antagonist effect relative to naloxone” value is reported as “ten times less effective”. Moreover, the “elimination of antagonist effect by washing” value in test [4] (washing of the ileum specimen) was “did not readily eliminate the antagonist effect”.
As to `C=CCN1CC[C@]23c4c5ccc(O)c4O[C@H]2C(=NN=C2CC[C@@]4(O)[C@H]6Cc7ccc(O)c8c7[C@@]4(CCN6CC=C)[C@H]2O8)CC[C@@]3(O)[C@H]1C5` [naloxone azine], in the test on opioid receptors, the “persistence of binding (in words)” value is “long lasting effect”.
Regarding `O=C1CC[C@@]2(O)[C@H]3Cc4ccc(O)c5c4[C@@]2(CCN3CC2CC2)[C@H]1O5` [naltrexone], the suppression of feeding entry in test [5] is listed as “effective in suppressing feeding”.
